Measured values published in patent publication US7208494B2, “5HT2c receptor agonists” (Hoffmann-La Roche Inc., priority 2003, dated 2007).

What was measured:
[1] = target: T1, 5-HT2C receptor (Homo sapiens, UniProt P28335); test: Functional activity, FLIPR calcium assay, h5-HT2C; format: cell-based; set-up: expressed in transfected cells; host or cells: CHO cells; settings: for EC50: CHO cells expressing human 5-HT2C, FLIPR; for h5-HT2C Rel. Eff.: relative to response of 10 μM 5-HT (defined as 100%)
T1 sequence (P28335 33-458): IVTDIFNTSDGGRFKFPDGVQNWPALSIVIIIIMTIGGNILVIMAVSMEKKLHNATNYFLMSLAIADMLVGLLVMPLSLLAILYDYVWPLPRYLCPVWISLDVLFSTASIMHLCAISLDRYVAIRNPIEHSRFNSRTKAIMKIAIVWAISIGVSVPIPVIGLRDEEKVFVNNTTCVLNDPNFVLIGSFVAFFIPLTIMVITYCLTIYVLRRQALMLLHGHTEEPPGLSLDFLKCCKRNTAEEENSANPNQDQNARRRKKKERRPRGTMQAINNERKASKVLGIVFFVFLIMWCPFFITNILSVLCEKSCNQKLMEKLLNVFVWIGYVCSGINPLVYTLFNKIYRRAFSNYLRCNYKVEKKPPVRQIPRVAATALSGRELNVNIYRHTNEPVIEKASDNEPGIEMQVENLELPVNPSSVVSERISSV
Description: (§1) The functional activity of compounds of formula (I) was assayed using a Fluorimetric Imaging Plate reader (FLIPR). CHO cells expressing the human 5-HT2C or human 5-HT2A receptors were counted and plated into standard 96 well microtitre plates on the day before testing to give a confluent monolayer. The cells were then dye loaded with the calcium sensitive dye, Fluo-3-AM. Unincorporated dye was removed using an automated cell washer to leave a total volume of 100 μL/well of assay buffer (Hanks balanced salt solution containing 20 mM Hepes and 2.5 mM probenecid). The drug (dissolved in 50 μL of the assay buffer) was added at a rate of 70 μL/sec to each well of the FLIPR 96 well plate during fluorescence measurements. The measurements were taken at 1 sec intervals and the maximum fluorescent signal was measured (approx 10–15 secs after drug addition) and compared with the response produced by 10 μM 5-HT (defined as 100%) to which it was expressed as a percentage response (relative efficacy). Dose response curves were constructed using Graphpad Prism (Graph Software Inc.).

[2] = target: T2, human 5-HT2B receptors (Homo sapiens, UniProt P41595); test: Binding to 5-HT2B receptor, [3H]-5-HT, Method (b); settings: human 5-HT2B in CHO cell line, read-out: Ki (2B)
T2 construct: expressed in transfected cells; host or cells: CHO cell line
Description: (§2) The binding of compounds of formula (I) to serotonin receptors was determined in vitro by standard methods. The preparations were investigated in accordance with the assays given hereinafter.
Method (b): For the binding to the 5-HT2B receptor the 5-HT2B receptors were radiolabeled with [^3H]-5-HT. The affinity of the compounds for human 5-HT2B receptors in a CHO cell line was determined according to the procedure of K. Schmuck, C. Ullmer, P. Engels and H. Lubbert, FEBS Lett., 1994, 342, 85–90.

[3] = target: T3, 5-HT2A receptor (Homo sapiens, UniProt P28223); test: Functional activity, FLIPR calcium assay, h5-HT2A; format: cell-based; set-up: expressed in transfected cells; host or cells: CHO cells; settings: for EC50: CHO cells expressing human 5-HT2A, FLIPR; for h5-HT2A Rel. Eff.: relative to response of 10 μM 5-HT (defined as 100%)
Description: as §1

[4] = target: T3, 5-HT2A receptor; test: Binding to 5-HT2A receptor, [125I]-DOI, Method (c); set-up: expressed in transfected cells; host or cells: CHO cell line; settings: CHO cell line, read-out: Ki (2A)
Description: as §2
Method (c): For the binding to the 5-HT2A receptor the 5-HT2A receptors were radiolabeled with [^125I]-DOI. The affinity of the compounds for 5-HT2A receptors in a CHO cell line was determined according to the procedure of D. J. McKenna and S. J. Peroutka, J. Neurosci., 1989, 9, 3482–90.

[5] = target: T1, 5-HT2C receptor; test: Binding to 5-HT2C receptor, [3H]-5-HT, Method (a); set-up: expressed in transfected cells; host or cells: CHO cell line; settings: CHO cell line, read-out: Ki (2C)
Description: as §2
Method (a): For the binding to the 5-HT2C receptor the 5-HT2C receptors were radiolabeled with [^3H]-5-HT. The affinity of the compounds for 5-HT2C receptors in a CHO cell line was determined according to the procedure of D. Hoyer, G. Engel and H. O. Kalkman, European J. Pharmacol., 1985, 118, 13–23.

T2 sequence (P41595 whole entry): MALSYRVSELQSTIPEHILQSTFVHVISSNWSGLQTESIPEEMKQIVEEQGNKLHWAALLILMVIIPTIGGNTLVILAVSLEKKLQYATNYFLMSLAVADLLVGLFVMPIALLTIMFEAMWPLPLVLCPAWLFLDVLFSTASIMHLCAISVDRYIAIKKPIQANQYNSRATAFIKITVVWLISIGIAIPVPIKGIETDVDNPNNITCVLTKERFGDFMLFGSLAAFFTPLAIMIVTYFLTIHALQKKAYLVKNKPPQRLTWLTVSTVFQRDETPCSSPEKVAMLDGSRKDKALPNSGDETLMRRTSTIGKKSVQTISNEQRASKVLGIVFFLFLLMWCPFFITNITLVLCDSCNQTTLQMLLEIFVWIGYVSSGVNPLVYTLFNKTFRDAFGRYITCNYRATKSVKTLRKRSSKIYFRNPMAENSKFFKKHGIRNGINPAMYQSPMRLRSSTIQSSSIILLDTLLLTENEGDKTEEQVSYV
T3 sequence (P28223 whole entry): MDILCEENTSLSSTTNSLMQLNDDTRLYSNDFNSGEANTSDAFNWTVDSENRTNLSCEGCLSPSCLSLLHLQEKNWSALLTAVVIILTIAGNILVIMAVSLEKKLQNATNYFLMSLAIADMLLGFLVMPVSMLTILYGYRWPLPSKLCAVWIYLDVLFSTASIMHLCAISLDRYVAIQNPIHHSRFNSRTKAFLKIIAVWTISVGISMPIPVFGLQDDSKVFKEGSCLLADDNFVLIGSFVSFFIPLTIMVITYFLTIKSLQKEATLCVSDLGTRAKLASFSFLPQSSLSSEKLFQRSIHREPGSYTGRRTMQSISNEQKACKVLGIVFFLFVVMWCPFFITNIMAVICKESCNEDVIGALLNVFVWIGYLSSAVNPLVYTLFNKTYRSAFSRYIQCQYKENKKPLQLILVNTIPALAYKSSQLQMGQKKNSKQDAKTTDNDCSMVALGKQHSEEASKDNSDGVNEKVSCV

In the case of `C[C@@H]1CNC[C@H]2Cc3cc(Cl)c(C(F)F)nc3N21` [Example 23, (4R,9aR)-7-Chloro-6-difluoromethyl-4-methyl-1,2,3,4,9,9a-hexahydro-2,4a,5-triaza-fluorene], the EC50 [1] is reported as 0.014 µM, the “h5-HT2C Rel. Eff.” value [1] is reported as 97% and the Ki [2] is reported as 0.012 µM. For the same compound, the EC50 [3] was 0.07 µM, the “h5-HT2A Rel. Eff.” value [3] was 56% and the Ki [4] was 0.025 µM. For the same compound, the Ki [5] was 0.008 µM.
With `CO[C@H](C)c1nc2c(cc1Cl)C[C@@H]1CNC[C@@H](C)N21` [Example 46, (4R,9aR)-7-Chloro-6-(1-(R)-methoxy-ethyl)-4-methyl-1,2,3,4,9,9a-hexahydro-2,4a,5-triaza-fluorene] the EC50 [1] was 0.013 µM, the “h5-HT2C Rel. Eff.” value [1] was 100% and the Ki [2] was 0.084 µM. The EC50 [3] was 0.273 µM, the “h5-HT2A Rel. Eff.” value [3] was 50% and the Ki [4] was 0.195 µM. The Ki [5] was 0.009 µM.
In the case of `Cc1c(F)cnc2c1C[C@@H]1CNC[C@@H](C)N21` [Example 80, (4R,9aR)-7-Fluoro-4,8-dimethyl-1,2,3,4,9,9a-hexahydro-2,4a,5-triaza-fluorene], the EC50 [1] is reported as 0.013 µM, the “h5-HT2C Rel. Eff.” value [1] is reported as 98% and the Ki [2] is reported as 0.087 µM. The EC50 [3] was 0.178 µM, the “h5-HT2A Rel. Eff.” value [3] was 56% and the Ki [4] was 0.086 µM. It also gave a Ki [5] of 0.006 µM.
